Laboratory results taken from US7731985B2, “4-aminopyrimidines and their use for the antimicrobial treatment of surfaces” (Ciba Specialty Chemicals Corporation, priority 2002, dated 2010).

Legend:
Test in all cases: MIC in microtitre plates (Example 10)
Assay type in all cases: cell-based
Set-up in all cases: unit not given here
Settings in all cases: microtitre plate, 48 hours at 37° C., ≦20% growth
[1] = test system: Pseudomonas aeruginosa CIP A-22 (=PA)
Experimental: (§1) Determination of the Minimum Inhibitory Concentration (MIC Value) in Microtitre Plates Casein/soymeal peptone broth for preparation of pre-cultures of test bacteria and yeast Bacteria: • Pseudomonas aeruginosa CIP A-22 (=PA) • Escherichia coli NCTC 8196 (=EC) • Staphylococcus aureus ATCC 9144 (=SA) • Candida albicans ATCC 10231 (=CA) The test substances are pre-dissolved in dimethyl sulfoxide (DMSO) and tested in a dilution series of 1:2. Bacteria and yeast are cultured overnight in CASO broth. All the test organism suspensions are adjusted to an organism count of 1-5×10^6 CFU/ml using […] sodium chloride solution. The test substances are pre-pipetted into microtitre plates in amounts of 8 μl per well. The pre-adjusted organism suspensions are diluted 1:100 in CASO broth and are added in amounts of 192 μl per well to the test substances. The test batches are incubated for 48 hours at 37° C. The incubation, the growth is determined on the basis of the turbidity of the test batches (optical density) at 620 nm in a microplate reader. The minimum inhibitory concentration (MIC value) is the concentration of substance at which (compared to the growth of the control) an appreciable inhibition of growth (≦20% growth) of the test organisms is observed. Three microtitre plates are used for each test organism and substance concentration. All the substances are tested in duplicate.

[2] = test system: Candida albicans ATCC 10231 (=CA)
Experimental: as §1

[3] = test system: Escherichia coli NCTC 8196 (=EC)
Experimental: as §1

[4] = test system: Staphylococcus aureus ATCC 9144 (=SA)
Experimental: as §1

Compound | MIC PA [1] | MIC CA [2] | MIC EC [3] | MIC SA [4]
CCCCCCCCCCCCNc1cc(C)nc(-c2cccs2)n1 [compound 86] | <120 | 7.5 | 15 | 15
CCCCCCCCCCCCNc1cc(C)nc(-c2ccccc2)n1 [compound 87] | <120 | 7.5 | 15 | 15
CCCCCCCCCCCCNc1cc(C)nc(-c2ccncc2)n1 [compound 88] | <120 | 7.5 | 15 | 15
CCCCCCCCCCCCNc1cc(C)nc(C)n1 [compound 89] | >120 | <3.75 | <3.75 | <3.75
CCCCCCCCCCCCNc1cc(C)nc(-c2cccc(N)c2)n1 [compound 90] | >120 | <3.75 | 15 | 7.5
CCCCCCCCCCCCNc1cc(C)nc(-c2ccc(C)cc2)n1 [compound 91] | >120 | 15 | 30 | 30
CCCCCCCCCCCCNc1cc(C)nc(C2CC2)n1 [compound 92] | >120 | 7.5 | 15 | <3.75
CCCCCCCCCCCCNc1cc(C)nc(C(C)C)n1 [compound 93] | >120 | 7.5 | 15 | <3.75
CCCCCCCCCCCCNc1cc(C)nc(-c2csc(C)n2)n1 [compound 94] | >120 | 7.5 | 15 | <3.75
CCCCCCCCCCCCNc1cc(C)nc(-c2ccc(C)c(F)c2)n1 [compound 95] | >120 | 15 | 30 | 15
CCCCCCCCCCNc1cc(C)nc(-c2ccc(-c3ccccc3)cc2)n1 [compound 96] | >120 | 15 | 30 | 15
CCCCCCCCCCNc1cc(C)nc(-c2ccc(-c3ccccc3)cc2)n1 [compound 97] | >120 | 15 | 15 | 7.5
CCCCCCCCCCNc1cc(C)nc(-c2cccs2)n1 [compound 98] | >120 | 15 | 15 | 15
CCCCCCCCCCNc1cc(C)nc(-c2ccccc2)n1 [compound 99] | >120 | 30 | 15 | 15
CCCCCCCCCCNc1cc(C)nc(-c2ccncc2)n1 [compound 100] | >120 | 15 | 15 | 15
CCCCCCCCCCNc1cc(C)nc(C)n1 [compound 101] | >120 | 7.5 | 7.5 | 7.5
CCCCCCCCCCNc1cc(C)nc(-c2cccc(N)c2)n1 [compound 102] | >120 | 15 | 30 | 7.5
CCCCCCCCCCNc1cc(C)nc(-c2ccc(C)cc2)n1 [compound 103] | >120 | 30 | 60 | 15
CCCCCCCCCCNc1cc(C)nc(C2CC2)n1 [compound 104] | >120 | 7.5 | 7.5 | <3.75
CCCCCCCCCCNc1cc(C)nc(C(C)C)n1 [compound 105] | >120 | 7.5 | 15 | 7.5

Compound | MIC PA [1] | MIC CA [2] | MIC EC [3] | MIC SA [4]
CCCCCCCCCCNc1cc(C)nc(-c2csc(C)n2)n1 [compound 106] | >120 | 15 | 15 | <3.75
CCCCCCCCCCNc1cc(C)nc(-c2ccc(C)c(F)c2)n1 [compound 107] | >120 | 15 | 15 | 7.5
CCCCCCNc1cc(C)nc(-c2ccc(-c3ccccc3)cc2)n1 [compound 108] | >120 | >120 | >120 | 30
CCCCCCNc1cc(C)nc(-c2ccc(C(C)(C)C)cc2)n1 [compound 109] | >120 | 30 | 60 | 15
CCCCCCNc1cc(C)nc(-c2cccs2)n1 [compound 110] | >120 | 120 | >120 | 60
CCCCCCNc1cc(C)nc(-c2ccccc2)n1 [compound 111] | >120 | 60 | 120 | 7.5
CCCCCCNc1cc(C)nc(-c2ccncc2)n1 [compound 112] | >120 | 30 | 120 | 15
CCCCCCNc1cc(C)nc(C)n1 [compound 113] | >120 | 30 | 120 | 7.5
CCCCCCNc1cc(C)nc(-c2cccc(N)c2)n1 [compound 114] | >120 | 30 | >120 | 15
CCCCCCNc1cc(C)nc(-c2ccc(C)cc2)n1 [compound 115] | >120 | 120 | >120 | 7.5
CCCCCCNc1cc(C)nc(C2CC2)n1 [compound 116] | >120 | 15 | 60 | 7.5
CCCCCCNc1cc(C)nc(C(C)C)n1 [compound 117] | >120 | 30 | 120 | 15
CCCCCCNc1cc(C)nc(-c2csc(C)n2)n1 [compound 118] | >120 | 15 | 60 | 7.5
CCCCCCNc1cc(C)nc(-c2ccc(C)c(F)c2)n1 [compound 119] | >120 | 120 | >120 | 7.5
CCCCCCNc1cc(C)nc(-c2ccc(N)cc2)n1 [compound 120] | >120 | 30 | 120 | 30
CCCCN(CCCC)c1cc(C)nc(-c2ccncc2)n1 [compound 121] | >120 | >120 | >120 | 30
CCCCN(CCCC)c1cc(C)nc(-c2csc(C)n2)n1 [compound 122] | >120 | 120 | >120 | 30
CCCCN(C)c1cc(C)nc(-c2ccc(C(C)(C)C)cc2)n1 [compound 123] | >120 | >120 | >120 | 120
CCCCN(C)c1cc(C)nc(-c2cccs2)n1 [compound 124] | >120 | 60 | 120 | 60
CCCCN(C)c1cc(C)nc(-c2ccncc2)n1 [compound 125] | >120 | 120 | >120 | 120
